Drawing on patent US11091428B2 (HAPLOGEN GMBH, priority 2016, dated 2021), this text covers EC50 and IC50 for 33 compounds.

Assay [1] deals with picornaviruses (CVB1, HRV-A2, HRV-A23, EV-68). Description: Anti-picornavirus cytopathic effect (CPE) reduction assay on HeLa H1 cells. To be noted: Enterovirus B, HeLa H1, 48 h, HeLa H1 cells, 48 h, category from averaging the EC50 values from four picornaviruses (CVB1, HRV-A2, HRV-A23, EV68); read-out: EC50 values of the compounds determined in the anti-picornavirus assay. The format is cell-based. The essentials: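 Cytopathic-effect protection: EC50 from non-linear regression of cell viability (CellTiterBlue, 560/590 nm) 48 h post-infection, scaled between infected and mock-infected vehicle wells. Compound dilutions added to HeLa H1 cells 2 h before virus (MOI causing complete CPE within 2 days), in DMEM + 2% FBS; categories average the four viruses.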

In a further assay the target is T1, PLA2G16 (Homo sapiens, UniProt P53816).
T1 construct: Hexa-His (N); made in house; host or cells: E. coli BL21(DE3)
T1 sequence (P53816 1-162): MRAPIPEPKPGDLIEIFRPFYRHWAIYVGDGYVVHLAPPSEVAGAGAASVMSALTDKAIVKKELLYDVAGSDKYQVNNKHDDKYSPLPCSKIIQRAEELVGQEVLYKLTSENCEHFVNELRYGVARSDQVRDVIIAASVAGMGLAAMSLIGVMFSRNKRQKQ
Description: Enzyme activity assay for PLA2G16 (Red/Green BODIPY PC-A2 fluorescence). The format is biochemical. The conditions noted are these: His-tagged PLA2G16, 4 min pre-incubation, 2 nM to 50 μM; read-out: IC50 values of the compounds determined in the enzyme activity assay for PLA2G16. In short, it runs like this:
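IC50 from non-linear fits of fluorescence rise (480/530 nm, 10 min) after adding Red/Green BODIPY PC-A2 mixed with DOPC/DOPG/cholesterol liposomes. Recombinant His-tagged human enzyme, bacterially expressed, was first exposed to inhibitor (2 nM–50 μM final) for 4 min in 50 mM Tris pH 8.5, 100 mM NaCl, 5 mM glutathione.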

`COc1ccccc1N(C=O)C(C)C(=O)C(=O)NCc1cc(F)cc(Cl)c1` (stereo not drawn) [FP 94, N-[(3-Chloro-5-fluorophenyl)methyl]-3-[N-(2-methoxyphenyl)formamido]-2-oxobutanamide]: the EC50 in assay [1] is less than 1000 nM. Also, the IC50 at PLA2G16 was less than 1000 nM.
Consider `O=C(NC12CC(C1)C2)C(=O)[C@H]1CCC(=O)N1Cc1ccccc1` [FP 291, 2-[(2R)-1-Benzyl-5-oxopyrrolidin-2-yl]-N-{bicyclo[1.1.1]pentan-1-yl}-2-oxoacetamide], for which, in assay [1], the EC50 was less than 1000 nM. In addition, the IC50 on PLA2G16 was less than 1000 nM.
`O=C(NC1CCC1)C(=O)[C@H]1CCC(=O)N1Cc1ccccc1` [FP 237, 2-[(2R)-1-Benzyl-5-oxopyrrolidin-2-yl]-N-cyclobutyl-2-oxoacetamide]: the EC50 in assay [1] is less than 1000 nM. At PLA2G16, the IC50 was less than 1000 nM.
For the compound `CC(C)CNC(=O)C(=O)C(C)OC1CCCCC1` (stereo not drawn) [FP 124, 3-(Cyclohexyloxy)-N-(2-methylpropyl)-2-oxobutanamide], the EC50 in assay [1] was less than 1000 nM. Besides, the IC50 on PLA2G16 is less than 1000 nM.
In the case of `CC(C)NC(=O)[C@H]1C[C@H](NC(=O)C(=O)[C@H]2CCC(=O)N2Cc2ccccc2)C1` [FP 306, (1 r,3r)-3-{2-[(2R)-1-Benzyl-5-oxopyrrolidin-2-yl]-2-oxoacetamido}-N-(propan-2-yl)cyclobutane-1-carboxamide], the EC50 in assay [1] lay within 1000 to 10000 nM. Also, on PLA2G16, the IC50 was less than 1000 nM.
The matching figures for `O=C(NC1CN(C(=O)C2CCCC2)C1)C(=O)[C@H]1CCC(=O)N1Cc1ccccc1` [FP 319, 2-[(2R)-1-Benzyl-5-oxopyrrolidin-2-yl]-N-(1-cyclopentanecarbonylazetidin-3-yl)-2-oxoacetamide]: 1000 to 10000 nM and less than 1000 nM.
For `COc1ccccc1N(C=O)CCC(=O)C(=O)NCc1cccc(Cl)c1` [FP 115, N-[(3-Chlorophenyl)methyl]-4-[N-(2-methoxyphenyl)formamido]-2-oxobutanamide] the same measures were 1000 to 10000 nM and less than 1000 nM.
The matching figures for `CC(C)C(C(=O)C(=O)NCC1CC1)N(C=O)CC1CCOCC1` (stereo not drawn) [FP 34, N-(Cyclopropylmethyl)-4-methyl-3-{N-[(oxan-4-yl)methyl]formamido}-2-oxopentanamide]: 1000 to 10000 nM and less than 1000 nM.
`COc1ccccc1N(C=O)C(C)C(=O)C(=O)NCc1ccncc1` (stereo not drawn) [FP 90, 3-[N-(2-Methoxyphenyl)formamido]-2-oxo-N-[(pyridin-4-yl)methyl]butanamide]: the EC50 in assay [1] is more than 10000 nM. For the same compound, the IC50 on PLA2G16 was less than 1000 nM.
The matching figures for `O=C(COCc1ccccc1)C(=O)NCC1CC1` [FP 128, 3-(Benzyloxy)-N-(cyclopropylmethyl)-2-oxopropanamide]: less than 1000 nM and less than 1000 nM.
As to `CC(C)CNC(=O)C(=O)C(C)N(C=O)CC1CC1` (stereo not drawn) [FP 16, 3-[N-(cyclopropylmethyl)formamido]-N-(2-methylpropyl)-2-oxobutanamide], in assay [1], the EC50 was in the range of 1000 to 10000 nM. Moreover, the IC50 on PLA2G16 is less than 1000 nM.
The matching figures for `CC(C(=O)C(=O)NCc1cccc(Cl)c1)N(C=O)CC(C)(C)C` (stereo not drawn) [FP 23, N-[(3-Chlorophenyl)methyl]-3-[N-(2,2-dimethylpropyl)formamido]-2-oxobutanamide]: less than 1000 nM and less than 1000 nM.
For `Cc1ccc(CN2C(=O)CCC2C(=O)C(=O)NC2CC2)s1` (stereo not drawn) [FP 277, N-Cyclopropyl-2-{1-[(5-methylthiophen-2-yl)methyl]-5-oxopyrrolidin-2-yl}-2-oxoacetamide] the same measures were 1000 to 10000 nM and less than 1000 nM.
The matching figures for `O=C(NCC1CC1)C(=O)C1CCC(=O)N1CC1CCCCC1` (stereo not drawn) [FP 202, 2-[1-(Cyclohexylmethyl)-5-oxopyrrolidin-2-yl]-N-(cyclopropylmethyl)-2-oxoacetamide]: less than 1000 nM and less than 1000 nM.
Turning to `O=C(NC1CC1)C(=O)C1N(Cc2ccccc2)C(=O)CC12CC2` (stereo not drawn) [FP 345, 2-{5-Benzyl-6-oxo-5-azaspiro[2.4]heptan-4-yl}-N-cyclopropyl-2-oxoacetamide], in assay [1], the EC50 is less than 1000 nM. Besides, the IC50 at PLA2G16 is less than 1000 nM.
With `CC(NS(=O)(=O)Cc1ccccc1)C(=O)C(=O)NCC1CC1` (stereo not drawn) [FP 188, N-(Cyclopropylmethyl)-2-oxo-3-(phenylmethanesulfonamido)butanamide], the EC50 in assay [1] was more than 10000 nM. Besides, the IC50 at PLA2G16 is less than 1000 nM.
For `CC(NC(=O)c1ccccc1F)C(=O)C(=O)NCC1CC1` (stereo not drawn) [FP 164, N-(Cyclopropylmethyl)-3-[(2-fluorophenyl)formamido]-2-oxobutanamide] the same measures were 1000 to 10000 nM and less than 1000 nM.
`Cc1nc(C)n(CCCNC(=O)C(=O)C2CCC(=O)N2Cc2ccccc2)n1` (stereo not drawn) [FP 231, 2-(1-Benzyl-5-oxopyrrolidin-2-yl)-N-[3-(3,5-dimethyl-1H-1,2,4-triazol-1-yl)propyl]-2-oxoacetamide]: the EC50 in assay [1] was more than 10000 nM. On PLA2G16, the IC50 was less than 1000 nM.
The matching figures for `CC(=O)N1CCC(CN(C=O)C(C)C(=O)C(=O)NCC2CCCCC2)CC1` (stereo not drawn) [FP 79, 3-{N-[(1-Acetylpiperidin-4-yl)methyl]formamido}-N-(cyclohexylmethyl)-2-oxobutanamide]: more than 10000 nM and 1000 to 10000 nM.
Regarding `CC(C)C(OCC1CCOCC1)C(=O)C(=O)NCC1CC1` (stereo not drawn) [FP 137, N-(Cyclopropylmethyl)-4-methyl-3-[(oxan-4-yl)methoxy]-2-oxopentanamide], the EC50 in assay [1] is more than 10000 nM. For the same compound, at PLA2G16, the IC50 is less than 1000 nM.
The matching figures for `O=C(NCC1CC1)C(=O)C1CCC(=O)N1c1ccccc1` (stereo not drawn) [FP 264, N-(Cyclopropylmethyl)-2-oxo-2-(5-oxo-1-phenylpyrrolidin-2-yl)acetamide]: more than 10000 nM and 1000 to 10000 nM.
For `COc1ccccc1N(C=O)C(C)C(=O)C(=O)NCc1ccccc1C` (stereo not drawn) [FP 98, 3-[N-(2-Methoxyphenyl)formamido]-N-[(2-methylphenyl)methyl]-2-oxobutanamide] the same measures were 1000 to 10000 nM and less than 1000 nM.
For `Cc1ccc(CN2C(=O)CCC2C(=O)C(=O)NC2CC2)cc1` (stereo not drawn) [FP 270, N-Cyclopropyl-2-{1-[(4-methylphenyl)methyl]-5-oxopyrrolidin-2-yl}-2-oxoacetamide] the same measures were less than 1000 nM and less than 1000 nM.
For the compound `COc1cc(F)ccc1N(C=O)C(C)C(=O)C(=O)NCc1cccc(Cl)c1` (stereo not drawn) [FP 8, N-[(3-Chlorophenyl)methyl]-3-[N-(4-fluoro-2-methoxyphenyl)formamido]-2-oxobutanamide], the EC50 in assay [1] was less than 1000 nM. In addition, the IC50 at PLA2G16 is less than 1000 nM.
Consider `CC(C(=O)C(=O)NCC1CC1)N(C=O)CC1CCN(C(=O)OC(C)(C)C)CC1` (stereo not drawn) [FP 39, tert-Butyl 4-[(N-{1-[(cyclopropylmethyl)carbamoyl]-1-oxopropan-2-yl}formamido)methyl]piperidine-1-carboxylate], for which the EC50 in assay [1] is more than 10000 nM. The IC50 at PLA2G16 lay in the range of 1000 to 10000 nM.
`CC(C(=O)C(=O)NCC1CCCCC1)N(C=O)[C@H]1CC[C@@H](NC(=O)OC(C)(C)C)CC1` (stereo partly drawn) [FP 54, tert-Butyl N-[(1s,4s)-4-(N{1-[(cyclohexylmethyl)carbamoyl]-1-oxopropan-2-yl}-formamido)cyclohexyl]carbamate]: in assay [1], the half-maximal effective concentration (EC50) is more than 10000 nM. Besides, the IC50 on PLA2G16 is less than 1000 nM.
For `CC(C(=O)C(=O)NCC1CCCCC1)N(C=O)CC(F)(F)F` (stereo not drawn) [FP 50, N-(Cyclohexylmethyl)-2-oxo-3-[N-(2,2,2-trifluoroethyl)formamido]butanamide] the same measures were less than 1000 nM and less than 1000 nM.
For `COc1ccccc1OC(C)C(=O)C(=O)NC(C)C` (stereo not drawn) [FP 135, 3-(2-Methoxyphenoxy)-2-oxo-N-(propan-2-yl)butanamide] the same measures were 1000 to 10000 nM and less than 1000 nM.
The matching figures for `CC(NC(=O)c1ccccc1)C(=O)C(=O)NCC1CCCCC1` (stereo not drawn) [FP 179, N-(Cyclohexylmethyl)-2-oxo-3-(phenylformamido)butanamide]: less than 1000 nM and less than 1000 nM.
Regarding `O=C(NCC1CC1)C(=O)C1CCC(=O)N1CC1CCCC1` (stereo not drawn) [FP 280, 2-[1-(Cyclopentylmethyl)-5-oxopyrrolidin-2-yl]-N-(cyclopropylmethyl)-2-oxoacetamide], the EC50 in assay [1] is less than 1000 nM. Also, the 50% inhibitory concentration (IC50) on PLA2G16 was less than 1000 nM.
Consider `O=C(NC1CCN(S(=O)(=O)C2CC2)CC1)C(=O)[C@H]1CCC(=O)N1Cc1ccccc1` [FP 320, 2-[(2R)-1-Benzyl-5-oxopyrrolidin-2-yl]-N-[1-(cyclopropanesulfonyl)piperidin-4-yl]-2-oxoacetamide], for which, in assay [1], the EC50 is less than 1000 nM. Moreover, at PLA2G16, the IC50 was less than 1000 nM.
As for `O=C(NC1CCCC1)C(=O)C1CCC(=O)N1CC1CC1` (stereo not drawn) [FP 254, N-Cyclopentyl-2-[1-(cyclopropylmethyl)-5-oxopyrrolidin-2-yl]-2-oxoacetamide], the EC50 in assay [1] was 1000 to 10000 nM. The IC50 at PLA2G16 was less than 1000 nM.
As to `CCC1CC(=O)N(Cc2ccccc2)C1C(=O)C(=O)NC1CCOCC1` (stereo not drawn) [FP 344, 2-(1-Benzyl-3-ethyl-5-oxopyrrolidin-2-yl)-N-(oxan-4-yl)-2-oxoacetamide], the EC50 in assay [1] is less than 1000 nM. Moreover, the IC50 at PLA2G16 was less than 1000 nM.
